Patent US20170114025A1, “METHODS FOR INHIBITING NECROPTOSIS” (Catalyst Therapeutics Pty Ltd, priority 2014, published 2017)
Like-named read-outs stand apart in the source and are kept apart here.

Tests used:
[1] = tested on: U937 human histiocytic leukemia cell line; assay: Screening for inhibition of TSQ induced necroptosis, 96 well plate format; format: cell-based; details: U-937, 48 h
Protocol: Screening Compounds for Inhibition of TSQ Induced Necroptosis, 96 Well Plate Format.
U937 human histiocytic leukemia cell line.
35,000 per well in 120 μL of media, counted and plated immediately prior to addition of inhibitor and death stimuli. Final well volume of 150 μL after addition of compounds and death stimuli
HTRPMI (WEHI Media kitchen, contains L-Glutamine and penicillin, streptomycin)—supplemented with 7.4% v/v FCS (Gibco, Precision Plus. Lot #1221437)
48 hours following addition of compounds and death stimuli
DMSO Final Concentration (% v/v): 0.2%
Compounds that are in the Death Stimulation Cocktail and their Final Concentrations: • hTNF-Fc (100 ng/ml)—produced by Silke lab, WEHI • Compound A (500 nM)—Smac mimetic, Tetralogic • Q-VD-OPh (10 μM)—MP Biomedicals
Analysis: • Cells treated with PI staining (1 μg/ml) and analysed by flow cytometry
TNF; S: Smac mimetic; Q: Q-VD-OPh): TSQ treatment ensures that cells specifically undergo necroptotic cell death. TNF activates the TNF receptor, Smac mimetic direct the signal away from proinflammatory signaling and toward the RIP1/RIP3-mediated cell death pathways, and Q-VD-OPh ensures that the apoptotic response is blocked leaving only the programmed necrosis response. The compounds' activity (solution in DMSO) tested in this TSQ-induced assay is evaluated by measuring their ability to block cell death as measured by flow cytometry after PI staining.

[2] = tested on: wild-type MDFs; assay: Toxicity of compound in wild-type MDFs; format: cell-based; details: triplicate experiments
Description: Mouse dermal fibroblasts (MDFs) were isolated from three MlkI^−/− mice and three congenic wild type mice and then immortalized by SV40 large T antigen to generate three biologically independent cell lines, as described in Murphy J M, et al. (2013), Immunity 39(3):443-453. Immortalized MDFs were similarly prepared from three Ripk3^−/− mice and congenic wild type mice. MDFs and HEK293T were maintained in Dulbecco's modified Eagle's medium (DMEM) supplemented with 8-10% v/v fetal calf serum (FCS), and 5 μg/mL puromycin for lines stably transduced with inducible expression constructs for MLKL. U937 cells were cultured in RPMI1640 supplemented with 8% v/v FCS. Cell death assays were carried out in 24 well plates, seeding 1×10^5 cells per well. Cells attached over 4 h in the presence of 10 ng/mL doxycycline or 20 ng/mL were then treated with assorted combinations of Necrostatin (50 μM) and Q-VD-OPh (5 μM) 30 min prior to addition of TNF (100 ng/mL) and Smac mimetic (500 nM). After 24 h for MDF cells or 48 h for U937 cells, cells were harvested and PI positive cells (1 μg/mL) quantified using a BD FACSCalibur flow cytometer.

[3] = biological target: T1, recombinant RIPK3 (Mus musculus, UniProt Q9QZL0); assay: In vitro kinase assay; format: biochemical; details: for concentrations leading to enhanced RIPK3-mediated phosphorylation of MLKL: mouse MLKL(179-464) as substrate
T1 construct: Recombinant mRIPK3 kinase domain was expressed and purified from Sf21 cells; made in house; host or cells: Sf21 cells
T1 sequence (Q9QZL0 22-292 limits assumed): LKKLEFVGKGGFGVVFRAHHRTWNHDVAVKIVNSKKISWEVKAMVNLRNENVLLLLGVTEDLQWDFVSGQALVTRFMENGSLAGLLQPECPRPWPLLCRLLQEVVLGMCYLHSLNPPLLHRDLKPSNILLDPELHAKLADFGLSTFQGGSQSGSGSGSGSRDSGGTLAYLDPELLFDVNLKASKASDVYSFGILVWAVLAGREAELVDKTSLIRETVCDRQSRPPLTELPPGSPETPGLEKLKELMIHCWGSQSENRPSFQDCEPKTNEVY
Protocol: In vitro kinase assays were performed as described previously in Murphy J M, et al. (2013), Immunity 39(3):443-453 and Cook W D, et al. (2014) Cell Death Diff. in press, but for the addition of either a DMSO control or up to 12.5 μM of test compound in 0.5% v/v final DMSO.

[4] = biological target: T2, mouse MLKL(179-464) pseudokinase domain (Mus musculus, UniProt Q9D2Y4); assay: STD NMR nucleotide competition, mouse MLKL; format: binding; details: 200 μM compound, 200 μM nucleotide, 2 μM mouse MLKL(179-464)
T2 construct: made in house; host or cells: Sf21 insect cells
T2 sequence (Q9D2Y4 179-464 isoform Q9D2Y4-2): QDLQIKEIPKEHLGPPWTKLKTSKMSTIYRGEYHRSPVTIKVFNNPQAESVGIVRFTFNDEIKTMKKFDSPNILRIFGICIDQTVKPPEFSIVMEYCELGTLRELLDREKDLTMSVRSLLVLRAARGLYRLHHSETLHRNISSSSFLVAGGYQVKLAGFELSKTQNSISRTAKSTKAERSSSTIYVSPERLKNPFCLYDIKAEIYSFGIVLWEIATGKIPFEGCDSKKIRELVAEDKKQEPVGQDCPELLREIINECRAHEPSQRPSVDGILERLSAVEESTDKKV
Protocol: Nucleotides were dissolved in NMR buffer (20 mM HEPES, pH 7.5, 200 mM NaCl, 90% D2O, 10% H2O) at a final concentration of 200 μM in each sample of STD experiments. Three different samples were prepared for each nucleotide: (1) ATP or ADP with protein buffer added as equivalent volume of protein containing samples (2) ATP or ADP with MLKL pseudokinase domain at a final concentration of 2 μM (3) ATP or ADP with MLKL pseudokinase domain (2 μM) with test compound at 200 μM. […] Saturation of the protein resonances was achieved by a 4 s train of Gaussian pulses centred at −0.5 ppm. For the reference spectra, a similar saturation pulse was applied at a frequency centred 20,000 Hz off-resonance. A 15 ms T2-spin-lock period was employed before acquisition to allow the residual protein signal to decay. NMR data were processed in TOPSPIN version 3.2 (Bruker BioSpin).

[5] = tested on: MLKL translocation in MDFs; assay: Fractionation and Blue Native PAGE, MLKL membrane translocation; format: cell-based, mouse; details: TSQ up to 6 hours, 1 μM test compound, anti-MLKL blots of Blue-Native PAGE
Protocol: MDFs were seeded in 6 well plates (5×10^5 per well) and allowed to attach overnight. Cells were stimulated with TSQ for up to 6 hours in the presence of 1 μM test compound or DMSO control. Cells were harvested by scraping, washed once in PBS and permeabilized in buffer (20 mM Hepes (pH 7.5), 100 mM KCl, 2.5 mM MgCl2, and 100 mM sucrose) containing 0.025% digitonin (BIOSYNTH, Staad, Switzerland) and supplemented with EDTA-free Complete protease inhibitor cocktail (Roche), 2 μM N-ethyl maleimide, and phosphatase inhibitors (5 mM β-glycerophosphate, 1 mM Na Molybdate, 1 mM Na Pyrophosphate and 100 μM Na Fluoride). Permeabilization was confirmed by trypan blue uptake, and cytosolic and crude membrane fractions were separated by centrifugation at 11,000×g for 5 min. Digitonin was added to the cytoplasmic fraction to a final concentration of 1% and the crude membrane fraction was further solubilized in permeabilization buffer+1% digitonin and incubated on ice for 20 min. Crude membrane suspension was centrifuged at 11,000×g for 5 min and the supernatant loaded alongside cytoplasmic fraction on 4-16% Bis-Tris Native PAGE gel (LifeTechnologies). […] MLKL containing complexes were detected by anti-MLKL (3H1) Western blotting as described above.

CN(c1ccc(NC(=O)Nc2ccc(OC(F)(F)F)cc2)cc1)c1ccnc(Nc2cccc(S(N)(=O)=O)c2)n1 [Compound 1, 3-((4-(methyl(4-(3-(4-(trifluoromethoxy)phenyl)ureido)phenyl)amino)pyrimidin-2-yl)amino)benzenesulfonamide]
IC50 ([1]; read-out: Cell based assay Average): 69.4 nM
IC50 ([1]; read-out: Cell based assay IC50): 25.4 nM
concentrations at which toxicity induces death of wild-type MDFs [2]: ≥ 5 µM
inhibition of RIPK3 catalytic activity and of RIPK3-mediated phosphorylation of MLKL ([3]; in vitro kinase assays): neither the catalytic activity of recombinant RIPK3 nor RIPK3-mediated phosphorylation of MLKL were inhibited
concentrations leading to enhanced RIPK3-mediated phosphorylation of MLKL [3]: ≥ 10 µM
concentrations leading to enhanced RIPK3-mediated phosphorylation of MLKL ([3]; listed as compound 1): > 5 µM
impact on recombinant RIPK3 kinase activity ([3]; relative to DMSO control, up to 12.5 μM test compound): no impact
competition with ATP and ADP for binding (STD NMR) [4]: can compete with (i) ATP and (ii) ADP
MLKL translocation to the membrane fraction [5]: retarded translocation to the membrane fraction
